The term Ki denotes a measure of affinity in units of concentration, obtained from inhibition or displacement. A word on the IC50: it is the concentration that inhibits the measured activity by half.

Experimental findings from patent US7329651B2 (priority 2001, dated 2008) are described below.

For one test, the target named is T1, CB1 cannabinoid receptor (Rattus norvegicus, UniProt P20272).
T1 construct: membranes were prepared from rat forebrain membranes; from tissue; host or cells: rat forebrain
As to the kind of experiment: CB1 receptor binding, [3H] CP-55,940 displacement, rat forebrain membranes. The settings on record: rat forebrain membranes, 0.8 nM [3H] CP-55,940; read-out: Ki(nM) CB1. As to the method:
(§1) The prepared cannabinoid compounds were tested for CB2 receptor binding affinity and for CB1 receptor affinity (to determine selectivity for the CB2 receptor). As used herein, “binding affinity” is represented by the IC50 value which is the concentration of an analog required to occupy the 50% of the total number (Bmax) of the receptors. The lower the IC50 value, the higher the binding affinity. […] The binding affinities (Ki) are expressed in nanomoles (nM).
For the CB1 receptor binding studies, membranes were prepared from rat forebrain membranes according to the procedure of P. R. Dodd et al; A Rapid Method for Preparing Synaptosomes: Comparison with Alternative Procedures, Brain Res., 107-118 (1981). The binding of the novel analogues to the CB1 cannabinoid receptor was assessed as described in W. A. Devane et al; Determination and Characterization of a Cannabinoid Receptor in a Rat Brain, Mol. Pharmacol., 34, 605-613 (1988) and A. Charalambous et al; “5′-azido ^8−THC: A Novel Photoaffinity Label for the Cannabinoid Receptor”, J. Med. Chem., 35, 3076-3079 (1992) with the following changes. The above articles are incorporated by reference herein.
Membranes, previously frozen at −80° C., were thawed on ice. To the stirred suspension was added three volumes of TME (25 mM Tris-HCl buffer, 5 mM MgCl2 and 1 mM EDTA) at a pH 7.4. The suspension was incubated at 40° C. for 30 min. At the end of the incubation, the membranes were pelleted and washed three times with TME.
(§2) The treated membranes were subsequently used in the binding assay described below. Approximately 30 μg of membranes were incubated in silanized 96-well microtiter plate with TME containing 0.1% essentially fatty acid-free bovine serum albumin (BSA), 0.8 nM [^3H] CP-55,940, and various concentrations of test materials at 30° C. for 1 hour. The samples were immediately filtered using a Packard Filtermate 196 and Whatman GF/C filterplates and washed with wash buffer (TME) containing 0.5% BSA. Radioactivity was detected using MicroScint 20 scintillation cocktail added directly to the dried filterplates, and the filterplates were counted using a Packard Instruments Top-Count. Nonspecific binding was assessed using 100 nM CP-55,940. Data collected from three independent experiments performed with duplicate determinations was normalized between 100% and 0% specific binding for [^3H] CP-55,940, determined using buffer and 100 nM CP-55,940. The normalized data was analyzed using a 4-parameter nonlinear logistic equation to yield IC50 values. Data from at least two independent experiments performed in duplicate was used to calculate IC50 values which were converted to Ki values using the using the assumptions of Cheng et al; “Relationship Between the Inhibition Constant (Ki) and the concentration of Inhibitor which causes 50% Inhibition (IC50) of an Enzymatic Reaction”, Biochem. Pharmacol., 22, 3099-3102, (1973), which is incorporated by reference herein.

A further test deals with T2, CB2 receptor (Mus musculus, UniProt P47936).
T2 construct: membranes were prepared from frozen mouse spleen; from tissue; host or cells: mouse spleen
As to the kind of experiment: biochemical. It counts as binding. As to the method:
as §1, §2
For the CB2 receptor binding studies, membranes were prepared from frozen mouse spleen essentially according to the procedure of P. R. Dodd et al; “A Rapid Method for Preparing Synaptosomes: Comparison with Alternative Procedures”, Brain Res., 226, 107-118 (1981) which is incorporated by reference herein. Silanized centrifuge tubes were used throughout to minimize receptor loss due to adsorption. The CB2 binding assay was conducted in the same manner as the CB1 binding assay. The binding affinities (Ki) were also expressed in nanomoles (nM).

The next test has as its target CB2 (Homo sapiens, UniProt P34972). As to the kind of experiment: Intracellular cyclic AMP levels, comparative protein binding assay (adenylate cyclase inhibition). It counts as cell-based. The note with it: intracellular cAMP. As to the method:
Intracellular cyclic AMP (cAMP) levels are measured with a comparative protein binding assay (materials available from Diagnostic Products, Inc. of Carlsbad, Calif.) generally according to the method described in Tao, Q. and M. E. Abood; “Mutation of a highly conserved aspartate residue in the second transmembrane domain of the cannabinoid receptors, CB1 and CB2, disrupts G-protein coupling”, J Pharmacol Exp Ther, 1998, 285(2): pp. 651-658, which is incorporated by reference herein. […] The IC50 value for Compound 2 was 8 nM.

Chain of CB2 (P34972 whole entry, species assumed, the tested form may be a part): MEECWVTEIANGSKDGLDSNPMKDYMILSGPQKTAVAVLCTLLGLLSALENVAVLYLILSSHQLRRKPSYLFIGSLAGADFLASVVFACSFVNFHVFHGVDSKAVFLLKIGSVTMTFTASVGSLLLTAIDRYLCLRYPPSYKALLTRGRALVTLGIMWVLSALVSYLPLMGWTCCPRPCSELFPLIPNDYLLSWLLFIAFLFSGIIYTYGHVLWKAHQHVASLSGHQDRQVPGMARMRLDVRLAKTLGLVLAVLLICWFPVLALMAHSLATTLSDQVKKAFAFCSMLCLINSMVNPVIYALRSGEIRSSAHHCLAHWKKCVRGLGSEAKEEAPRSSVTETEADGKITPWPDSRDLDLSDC
T2 sequence (P47936 whole entry): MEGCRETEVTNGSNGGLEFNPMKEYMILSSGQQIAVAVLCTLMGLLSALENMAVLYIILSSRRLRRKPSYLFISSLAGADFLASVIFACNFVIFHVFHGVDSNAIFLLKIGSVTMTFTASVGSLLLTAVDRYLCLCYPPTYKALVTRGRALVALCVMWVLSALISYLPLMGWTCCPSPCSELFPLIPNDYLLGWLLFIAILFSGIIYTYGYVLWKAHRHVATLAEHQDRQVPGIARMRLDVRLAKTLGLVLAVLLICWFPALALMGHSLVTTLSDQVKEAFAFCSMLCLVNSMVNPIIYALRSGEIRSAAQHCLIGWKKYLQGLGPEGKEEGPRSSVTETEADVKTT
T1 sequence (P20272 whole entry): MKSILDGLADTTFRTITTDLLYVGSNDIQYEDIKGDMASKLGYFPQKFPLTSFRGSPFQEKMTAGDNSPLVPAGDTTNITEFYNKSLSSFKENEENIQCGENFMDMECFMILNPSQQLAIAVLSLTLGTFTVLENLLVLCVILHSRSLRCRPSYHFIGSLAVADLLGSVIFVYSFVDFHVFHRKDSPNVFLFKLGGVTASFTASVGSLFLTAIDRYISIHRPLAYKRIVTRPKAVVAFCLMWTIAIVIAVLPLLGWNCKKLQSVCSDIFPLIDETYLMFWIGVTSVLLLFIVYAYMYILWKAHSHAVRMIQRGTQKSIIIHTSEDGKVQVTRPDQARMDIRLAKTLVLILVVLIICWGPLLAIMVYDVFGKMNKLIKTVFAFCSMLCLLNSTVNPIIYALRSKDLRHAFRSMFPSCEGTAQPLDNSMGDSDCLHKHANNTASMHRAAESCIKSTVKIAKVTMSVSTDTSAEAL

Take `CCOC(=O)C1=NN(c2ccccc2)C(C(=O)OCC)=NN1c1ccccc1` [compound 2]: the Ki at CB1 cannabinoid receptor was 1670 nM; at CB2 receptor (mouse spleen membranes, [3H] CP-55,940, read-out: Ki(nM) CB2) it was 19 nM. For the same compound, the “Selectivity for CB2” value on CB2 receptor (ratio of CB1 Ki to CB2 Ki) came to 88. Also, the “effect on formation of cyclic AMP” value at CB2 (adenylate cyclase) is listed as “reduce formation of cyclic AMP by inhibiting adenylate cyclase”. The IC50 on CB2 (read-out: IC50 value, reduction of cyclic AMP formation) came to 8 nM.
